Counter-ions that a name gives are not always drawn.
Columns and labels:
[1] = test system: various breast cancer cells; conditions: various breast cancer cells in vitro; cited from earlier work
[2] = test system: triple-negative breast cancer; conditions: mouse model of triple-negative breast cancer, 250 mg/kg; cited from earlier work
Solubility in water = assay type: physicochemical; conditions: data not shown
[3] = Kinetic solubility study of metformin salts in lipid excipients; conditions: for solubility in lipid vehicles: Miglyol 812N and Capryol 90 (text statement for both); for solubility (mg/g) of lipid excipient: medium-chain triglyceride (Miglyol 812N), kinetic solubility, visual inspection
[4] = test system: MYCN-2 and SK-N-Be2c neuroblastoma cells; experiment: In vitro cytotoxicity, SRB assay, statements spanning both neuroblastoma lines; assay type: cell-based, human; conditions: MYCN-2 and SK-N-Be2c cells
[5] = cited from earlier work
MYCN-2 cells = experiment: In vitro cytotoxicity, SRB assay, MYCN-2 cells; assay type: cell-based; conditions: Homo sapiens, read-out: IC50, cytotoxicity (MYCN)
SK-N-Be2c cells = experiment: In vitro cytotoxicity, SRB assay, SK-N-Be2c cells; assay type: cell-based; conditions: Homo sapiens, SK-N-BE(2)-C, read-out: IC50, cytotoxicity (Be2c)
cancer cells = conditions: read-out: IC50, anticancer activity; cited from earlier work

## CCCC(=O)O.CN(C)C(=N)N=C(N)N [metformin butyrate]
[1]
  improvement of the potency of metformin: 2- to 10 fold
[2]
  anticancer activity versus metformin: significantly higher anticancer activity than metformin

## CN(C)C(=N)NC(=N)N.C[C@H](CCC(=O)O)[C@H]1CC[C@H]2[C@@H]3[C@H](O)C[C@@H]4C[C@H](O)CC[C@]4(C)[C@H]3C[C@H](O)[C@]12C [metformin cholate, Metformin Cholate]
Solubility in water
  water solubility: > 1000 µg/mL
[3]
  solubility in lipid vehicles: < 5 mg/g
  solubility (mg/g) of lipid excipient: <5 mg/g

## CN(C)C(=N)NC(=N)N.NCCCC(=O)O [metformin gamma-aminobutyric acid salt]
[1]
  improvement of the potency of metformin: 2- to 10 fold

## CC(C)C[C@H](CN)CC(=O)O.CN(C)C(=N)NC(=N)N [metformin pregabalin salt]
[1]
  improvement of the potency of metformin: 2- to 10 fold

## CCCCC(CC)COC(=O)CC(C(=O)OCC(CC)CCCC)S(=O)(=O)O.CN(C)C(=N)N=C(N)N (stereo not drawn) [metformin docusate, Metformin Docusate]
[4]
  improvement in anticancer potency (lower IC50) compared to metformin hydrochloride: 700- to 4300 fold
[5]
  solubility in medium-chain triglycerides and propylene glycol fatty acid esters: > 75 mg/g
[3]
  solubility in lipid vehicles: > 200 mg/g
  solubility (mg/g) of lipid excipient: >200 mg/g

## CN(C)C(=N)N=C(N)N [metformin hydrochloride, Metformin hydrochloride]
MYCN-2 cells
  IC50: > 100 mM
SK-N-Be2c cells
  IC50: > 100 mM
Cancer cells
  IC50: > 1 mM

## CN(C)C(=N)NC(=N)N.NCC1(CC(=O)O)CCCCC1 [metformin gabapentin salt]
[1]
  improvement of the potency of metformin: 2- to 10 fold

Source: paper PMC7859945 (ACS Omega, 2021)
